Measured values from US8436178B2, “Imidazoquinolines with immuno-modulating properties” (AstraZeneca AB, priority 2007, dated 2013).

Tests used:
[1] = target: T1, human TLR7 (Homo sapiens, UniProt Q9NYK1); experiment: Human TLR7 assay (SEAP reporter in HEK293 cells); assay type: cell-based; conditions: SEAP induction in HEK293 cells expressing human TLR7, overnight incubation at 37° C., 0.1% DMSO
T1 construct: expressed in transfected cells; host or cells: HEK293 cell line stably expressing the pNiFty2-SEAP reporter plasmid; TLR7 in pUNO vector, blasticidin selection
T1 sequence (Q9NYK1 27-1049): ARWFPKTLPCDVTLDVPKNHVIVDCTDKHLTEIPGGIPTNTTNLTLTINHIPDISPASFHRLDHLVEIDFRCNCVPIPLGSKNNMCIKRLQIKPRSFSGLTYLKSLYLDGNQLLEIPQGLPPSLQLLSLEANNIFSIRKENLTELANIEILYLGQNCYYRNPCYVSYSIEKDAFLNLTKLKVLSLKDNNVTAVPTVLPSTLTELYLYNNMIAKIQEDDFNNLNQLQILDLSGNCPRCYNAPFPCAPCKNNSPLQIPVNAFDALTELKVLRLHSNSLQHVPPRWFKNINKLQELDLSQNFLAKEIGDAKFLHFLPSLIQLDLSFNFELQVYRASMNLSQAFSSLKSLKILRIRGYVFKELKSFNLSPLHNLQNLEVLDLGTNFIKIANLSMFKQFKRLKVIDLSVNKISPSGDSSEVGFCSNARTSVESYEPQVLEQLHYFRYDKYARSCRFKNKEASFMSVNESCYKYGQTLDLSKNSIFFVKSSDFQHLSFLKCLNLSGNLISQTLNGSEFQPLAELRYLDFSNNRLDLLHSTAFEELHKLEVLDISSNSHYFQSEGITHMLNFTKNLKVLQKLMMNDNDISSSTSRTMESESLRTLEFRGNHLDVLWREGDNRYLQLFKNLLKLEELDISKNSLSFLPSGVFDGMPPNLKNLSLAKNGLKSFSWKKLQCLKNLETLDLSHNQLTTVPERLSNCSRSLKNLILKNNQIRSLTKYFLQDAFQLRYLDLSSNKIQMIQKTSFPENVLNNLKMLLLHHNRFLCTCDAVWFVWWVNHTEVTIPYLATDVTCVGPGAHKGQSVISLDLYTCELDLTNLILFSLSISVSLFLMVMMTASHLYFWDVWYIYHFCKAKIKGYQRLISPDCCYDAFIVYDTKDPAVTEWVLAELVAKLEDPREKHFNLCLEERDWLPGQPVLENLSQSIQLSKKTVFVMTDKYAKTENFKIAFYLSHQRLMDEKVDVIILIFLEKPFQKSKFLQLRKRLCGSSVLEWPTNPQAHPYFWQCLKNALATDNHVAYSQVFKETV
From the text: The most common variant sequence of human TLR7 (represented by the EMBL sequence AF240467) was cloned into the mammalian cell expression vector pUNO and transfected into a HEK293 cell line already stably expressing the pNiFty2-SEAP reporter plasmid; integration of the reporter gene was maintained by selection with the antibiotic zeocin. Transfectants with stable TLR7 expression were selected using the antibiotic blasticidin. In this reporter cell-line, expression of secreted alkaline phosphatase (SEAP) is controlled by an NFkB/ELAM-1 composite promoter comprising five NFkB sites combined with the proximal ELAM-1 promoter. TLR signaling leads to the translocation of NFkB and activation of the promoter results in expression of the SEAP gene. TLR7-specific activation was assessed by determining the level of SEAP produced following overnight incubation of the cells at 37° C. with the standard compound in the presence of 0.1% (v/v) dimethylsulfoxide (DMSO). Concentration dependent induction of SEAP production by compounds was expressed as the concentration of compound which produced half of the maximal level of SEAP induction for that compound (pEC50).

[2] = tested on: Male Brown Norway rats; experiment: Antigen-induced pulmonary inflammation in a rat asthma model (OVA challenge, BALF); assay type: in vivo; conditions: BALF 48 h after challenge, Mean ± SE (n = 8)
From the text: Rats were sensitised and challenged to produce allergic airway inflammation in a similar manner to that described by Underwood et al (British Journal of Pharmacology 2002; 137: 263-275, 2002). Male Brown Norway rats were sensitized subcutaneously with ovalbumin (OVA) and aluminum hydroxide on day 0, and challenged with aerosolized OVA solution on day14.

[3] = 0.1 mg/kg intratracheally 24 h before and 24 h after OVA-challenge
[4] = 1 mg/kg intratracheally 24 h before and 24 h after OVA-challenge

Compound: CCCCc1nc2c(N)nc3ccccc3c2n1CCCN(Cc1ccc(CC(=O)OC)cc1)C(=O)CN(C)C [Example 3, Methyl 2-(4-((N-(3-(4-amino-2-butyl-1H-imidazo[4,5-c]quinolin-1-yl)propyl)-2-(dimethylamino)acetamido)methyl)phenyl)acetate]
- EC50 [1]: 79.4 nM
- Eosinophiles (cells/BALF) [2, 3]: 67.2 ± 16.3 cells/BALF
- IL-5 (pg/ml BALF) [2, 3]: 18.0 ± 8.7 pg/ml BALF
- IL-13 (pg/ml BALF) [2, 3]: <4.9 pg/ml BALF
- Eosinophiles (cells/BALF) [2, 4]: 36.2 ± 11.3 cells/BALF
- IL-5 (pg/ml BALF) [2, 4]: 11.3 ± 7.5 pg/ml BALF
- IL-13 (pg/ml BALF) [2, 4]: <4.9 pg/ml BALF

Compound: COCCc1nc2c(N)nc3ccccc3c2n1CCCN(Cc1ccc(CC(=O)OC)cc1)C(=O)CN1CCN(C)CC1 [Example 70, Methyl 2-(4-((N-(3-(4-amino-2-(2-methoxyethyl)-1H-imidazo[4,5-c]quinolin-1-yl)propyl)-2-(4-methylpiperazin-1-yl)acetamido)methyl)phenyl)acetate]
- EC50 [1]: 398 nM

Compound: COCCc1nc2c(N)nc3ccccc3c2n1CCCN(Cc1ccc(CC(=O)OC)cc1)C(=O)CN1CCN(CCOC)CC1 [Example 71, Methyl 2-(4-((N-(3-(4-amino-2-(2-methoxyethyl)-1H-imidazo[4,5-c]quinolin-1-yl)propyl)-2-(4-(2-methoxyethyl)piperazin-1-yl)acetamido)methyl)phenyl)acetate]
- EC50 [1]: 200 nM

Compound: COCCc1nc2c(N)nc3ccccc3c2n1CCCN(Cc1cccc(CC(=O)OC)c1)C(=O)CN1CCN(C)CC1 [Example 72, Methyl 2-(3-((N-(3-(4-amino-2-(2-methoxyethyl)-1H-imidazo[4,5-c]quinolin-1-yl)propyl)-2-(4-methylpiperazin-1-yl)acetamido)methyl)phenyl)acetate]
- EC50 [1]: 501 nM

Compound: COCCc1nc2c(N)nc3ccccc3c2n1CCCN(Cc1cccc(CC(=O)OC)c1)C(=O)CN1CCN(CCOC)CC1 [Example 73, Methyl 2-(3-((N-(3-(4-amino-2-(2-methoxyethyl)-1H-imidazo[4,5-c]quinolin-1-yl)propyl)-2-(4-(2-methoxyethyl)piperazin-1-yl)acetamido)methyl)phenyl)acetate]
- EC50 [1]: 501 nM
